This data set can be described thus: Stability under stressed conditions (assay and degradation products). Type of data set: physicochemical. The following applies: storage over 5 weeks at 40 °C with 75 % RH and open cap. The method, then: In Table 1 assay and degradation products results for ranolazine per se, a pharmaceutical composition of the present invention, comprising ranolazine and HPMC-AS as well as a comparative pharmaceutical composition known from the prior art under stressed conditions are shown. Herein the stressed conditions are defined as storage over 5 weeks at 40 °C with 75 % RH and open cap.

For `COc1ccccc1OCC(O)CN1CCN(CC(=O)Nc2c(C)cccc2C)CC1` (racemic) [Ranolazine (raw material), (RS)-N-(2,6-Dimethylphenyl)-2-[4-[2-hydroxy-3-(2-methoxyphenoxy)propyl]piperazin-1-yl]acetamide], the “Assay (%)” value was determined as 99.6%. For the same compound, the “Biggest impurity % (RRt)” value (RRt in brackets in the row below) came out at 0.066%.

(Values after patent EP2524688B1, “Composition for modified release comprising ranolazine” (ratiopharm GmbH, priority 2011, dated 2012).)
